What was measured:
[1] = tested on: Nucleic Acid
[2] = tested on: Nucleic Acid; remark: listed apart in the source
[3] = tested on: L1210; assay: cells; conditions: Mus musculus, L1210, read-out: ID50
Description: Growth inhibition against cultured murine L1210 leukemia cells

[4] = physchem; conditions: 20% aqueous DMF
Description: pKa value determined spectrophotometrically in 20% aqueous DMF

Row | Log K [1] | Log K [2] | IC50 [3] | pKa [4] | Structure (SMILES)
1 | 6.06 | 6.83 | 0.89 µM | 5.5 | COc1cc(NS(C)(=O)=O)ccc1Nc1c2ccc(Cl)cc2nc2c(C(=O)NCC(N)=O)cccc12
2 | 5.54 | 6.18 | 0.27 µM |  | CNC(=O)c1cccc2c(Nc3ccc(NS(C)(=O)=O)cc3OC)c3ccccc3nc12
3 | 6 | 6.69 | 0.46 µM | 4.53 | COc1cc(NS(C)(=O)=O)ccc1Nc1c2ccc(C)cc2nc2c(C(=O)NCC(N)=O)cccc12
4 | 5.57 | 5.65 |  |  | COc1cc(NS(C)(=O)=O)ccc1Nc1c2ccccc2nc2ccccc12
5 | 5.83 | 5.97 | 0.022 µM |  | COc1ccc2c(Nc3ccc(NS(C)(=O)=O)cc3OC)c3ccccc3nc2c1
6 | 5.47 | 6.13 | 0.27 µM |  | COc1cc(NS(C)(=O)=O)ccc1Nc1c2ccccc2nc2c(C(N)=O)cccc12
7 | 6.29 | 6.65 | 0.217 µM | 5.68 | CNC(=O)c1cccc2c(Nc3ccc(NS(C)(=O)=O)cc3OC)c3ccc(Cl)cc3nc12
8 | 5.96 | 6.4 | 0.35 µM | 4.71 | COc1cc(NS(C)(=O)=O)ccc1Nc1c2ccc([N+](=O)[O-])cc2nc2c(C(N)=O)cccc12
9 | 6.33 | 6.58 | 0.52 µM | 5.68 | COc1cc(NS(C)(=O)=O)ccc1Nc1c2ccc(Cl)cc2nc2c(C(N)=O)cccc12
10 | 5.95 | 6.08 | 0.012 µM |  | COc1cc(NS(C)(=O)=O)ccc1Nc1c2ccccc2nc2cc(C)ccc12
11 | 6.06 | 5.98 | 0.07 µM |  | COc1cc(NS(C)(=O)=O)ccc1Nc1c2ccccc2nc2cc(Cl)ccc12
12 | 6.22 | 6.68 | 0.17 µM | 4.71 | CNC(=O)c1cccc2c(Nc3ccc(NS(C)(=O)=O)cc3OC)c3ccc(C)cc3nc12
13 | 6.4 | 6.3 | 0.2 µM | 4.71 | COc1cc(NS(C)(=O)=O)ccc1Nc1c2ccc(C)cc2nc2c(C(N)=O)cccc12
14 | 6.29 | 6.82 | 0.021 µM |  | CNC(=O)c1cccc2c(Nc3ccc(NS(C)(=O)=O)cc3OC)c3ccc(N)cc3nc12
15 | 6.29 | 6.12 | 0.05 µM |  | COc1cc(NS(C)(=O)=O)ccc1Nc1c2ccccc2nc2cc(Br)ccc12
16 | 6.38 | 6.82 | 0.068 µM | 4.82 | CNC(=O)c1cccc2c(Nc3ccc(NS(C)(=O)=O)cc3OC)c3ccc(OC)cc3nc12
17 | 5.71 | 6.65 | 0.303 µM | 4.71 | CNC(=O)c1cccc2c(Nc3ccc(NS(C)(=O)=O)cc3OC)c3ccc([N+](=O)[O-])cc3nc12
18 | 5.65 | 6.13 | 0.11 µM | 5.52 | COc1cc(NS(C)(=O)=O)ccc1Nc1c2ccccc2nc2cc([N+](=O)[O-])ccc12
19 | 5.39 | 6.4 | 0.85 µM |  | COc1cc(NS(C)(=O)=O)ccc1Nc1c2ccccc2nc2c(C(=O)NCC(N)=O)cccc12
20 | 6.35 | 6.2 | 0.05 µM |  | COc1cc(NS(C)(=O)=O)ccc1Nc1c2ccccc2nc2cc(I)ccc12
21 | 6.21 | 6.13 | 0.0055 µM | 9.5 | COc1cc(NS(C)(=O)=O)ccc1Nc1c2ccccc2nc2cc(N)ccc12
